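Five compound concentrations were applied to cells in 96-well plates for 48 hours; endpoints were derived by simple linear interpolation of the resulting dose-response curve. GI50: concentration for 50% inhibition of growth.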 Calls of active or inactive are those of the source. No stated cut-off is given here; in the data, active = GI50 up to about 1.1 µM and inactive = higher.
How the values were obtained:
Assay in all cases: NCI-60 cell line screen, 48 h
[1] = system: NCI-H23
[2] = system: SF-295
[3] = system: U-251
[4] = system: HCC 2998
[5] = system: ACHN
[6] = system: SR
[7] = system: NCI-H522
[8] = system: OVCAR-5
[9] = system: SK-OV-3
[10] = system: T47D
[11] = system: KM12
[12] = system: LOX IMVI
[13] = system: A549
[14] = system: 786-0
[15] = system: A498
[16] = system: OVCAR-8
[17] = system: NCI-H226
[18] = system: NCI/ADR-RES
[19] = system: HOP-62
[20] = system: MDA-N

Measured: GI50

C=C1C(=O)OC2C1C(=O)C/C(C)=C/CCC1(C)OC21 (centres undefined)
inactive: [1] 19.5 µM | [2] 52.7 µM | [3] 19.5 µM | [4] 18.9 µM | [5] 10.5 µM | [6] 3.33 µM | [7] 3.63 µM | [8] 17.7 µM | [9] 29.6 µM | [10] 11.2 µM | [11] 23.6 µM | [12] 2.47 µM | [13] 19.4 µM | [14] 14 µM | [15] 23.1 µM | [16] 25.6 µM | [17] 15.8 µM | [18] 31 µM | [19] 14.2 µM

CN(C)CCn1c(=O)oc2cc(C(=O)CN3CCOCC3)ccc21
inactive: [1] > 100 µM | [2] > 100 µM | [3] > 100 µM | [5] > 100 µM | [6] > 100 µM | [8] > 100 µM | [9] > 100 µM | [20] > 100 µM | [11] > 100 µM | [12] > 100 µM | [14] > 100 µM | [16] > 100 µM | [17] > 100 µM | [18] > 100 µM | [19] > 100 µM

NC(Cc1n[nH]c2ccccc12)C(=O)O (centres undefined)
inactive: [1] > 100 µM | [2] > 100 µM | [3] > 100 µM | [4] > 100 µM | [5] > 100 µM | [6] > 100 µM | [7] > 100 µM | [8] > 100 µM | [9] > 100 µM | [10] > 100 µM | [11] > 100 µM | [12] > 100 µM | [13] > 100 µM | [14] > 100 µM | [15] > 100 µM | [16] > 100 µM | [17] > 100 µM | [18] > 100 µM | [19] > 100 µM

CCCc1cn2c(/C=N/N=C(N)N)c(-c3c(OC)ccc(OC)c3[N+](=O)[O-])nc2s1
inactive: [1] 10.9 µM | [2] 14.1 µM | [3] 4.74 µM | [4] 2.57 µM | [5] 18 µM | [6] 2.03 µM | [7] 8.79 µM | [8] 15.6 µM | [9] 18.1 µM | [10] 3.7 µM | [11] 3.16 µM | [12] 3.02 µM | [13] 19.4 µM | [14] 9.89 µM | [15] 21.2 µM | [16] 14.6 µM | [17] 11.4 µM | [18] 19.8 µM | [19] 12.6 µM

N#Cc1c(-c2ccc([N+](=O)[O-])cc2)cc(-c2ccc(Nc3ccnc4cc(Cl)ccc34)cc2)[nH]c1=O
inactive: [1] 93.3 µM | [2] > 100 µM | [3] > 100 µM | [4] > 100 µM | [5] > 100 µM | [6] > 100 µM | [7] > 100 µM | [8] > 100 µM | [9] > 100 µM | [10] > 100 µM | [11] 4.01 µM | [12] > 100 µM | [13] > 100 µM | [14] > 100 µM | [15] > 100 µM | [16] > 100 µM | [17] > 100 µM | [18] > 100 µM | [19] 67.3 µM

CC(C)=C[C@@H]1C[C@H](C)c2c(O)cc(C)c3c2C1=C(C)C(=O)C3=O [ELISABATIN A]
inactive: [1] 13.5 µM | [2] 14.7 µM | [3] 13.8 µM | [4] 21.8 µM | [5] 17.6 µM | [7] 15.3 µM | [8] 24.7 µM | [9] 16.7 µM | [20] 16.3 µM | [11] 15.6 µM | [12] 16.3 µM | [13] 10.1 µM | [14] 15.9 µM | [15] 19.1 µM | [16] 16.9 µM | [17] 16.3 µM | [18] 18.9 µM | [19] 17.4 µM

— ChEMBL document CHEMBL1201862, “PubChem BioAssay data set” (2004)
